# Assay results: ChEMBL document CHEMBL2016540, “Indole-propionic acid derivatives as potent, S1P3-sparing and EAE efficacious sphingosine-1-phosphate 1 (S1P1) receptor agonists” (Bioorg Med Chem Lett, 2012)
# Activity calls are given as the source filed them. The rule behind the calls is not given here.
# Target: Sphingosine 1-phosphate receptor 1 (Homo sapiens, UniProt P21453)
# Experiment: Agonist activity at S1P1 receptor by Tango assay
# Assay type: functional
# Conditions: not given
# Sphingosine 1-phosphate receptor 1, sequence (P21453 whole entry): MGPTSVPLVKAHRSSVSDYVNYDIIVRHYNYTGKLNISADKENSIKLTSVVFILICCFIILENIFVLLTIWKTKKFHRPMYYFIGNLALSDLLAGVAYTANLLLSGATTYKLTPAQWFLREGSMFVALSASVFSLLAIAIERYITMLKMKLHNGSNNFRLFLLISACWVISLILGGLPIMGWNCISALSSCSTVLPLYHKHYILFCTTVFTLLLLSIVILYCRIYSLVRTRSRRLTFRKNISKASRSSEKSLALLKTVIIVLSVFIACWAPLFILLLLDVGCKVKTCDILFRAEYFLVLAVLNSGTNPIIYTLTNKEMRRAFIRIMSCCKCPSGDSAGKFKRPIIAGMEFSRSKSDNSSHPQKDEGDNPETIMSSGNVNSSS
row,EC50,SMILES
1,5.01 nM,CC(C)Oc1ccc(-c2nc(-c3cccc4c(C(=O)O)c[nH]c34)no2)cc1Cl
2,20 nM,CC(C)Oc1ccc(-c2nc(-c3cccc4c(CCC(=O)O)cn(C(C)C)c34)no2)cc1Cl
3,0.0794 nM,CC(C)Oc1ccc(-c2nc(-c3cccc4c(CCc5nnn[nH]5)c[nH]c34)no2)cc1Cl
4,0.398 nM,CC(C)Oc1ncc(-c2nc(-c3cccc4c(CCC(=O)O)c[nH]c34)no2)cc1Cl
5,3.16 nM,CCOc1ccc(-c2nc(-c3cccc4c(CCC(=O)O)c[nH]c34)no2)cc1OCC
6,< 0.01 nM,CC(C)Oc1ccc(-c2nc(-c3ccc(F)c4c(CCC(=O)O)cn(C)c34)no2)cc1Cl
7,1.58 nM,Cc1cc(-c2nc(-c3cccc4c(CCC(=O)O)c[nH]c34)no2)cnc1OC(C)C
8,< 0.01 nM,CC(C)Oc1ccc(-c2nc(-c3cc(F)cc4c(CCC(=O)O)cn(C)c34)no2)cc1Cl
9,0.398 nM,CC(C)Oc1ccc(-c2nc(-c3cccc4c(CCCC(=O)O)c[nH]c34)no2)cc1Cl
10,100 nM,COc1cc(-c2nc(-c3cccc4c(CCC(=O)O)c[nH]c34)no2)cnc1OC(C)C
11,0.0501 nM,CC(C)Oc1ccc(-c2nc(-c3cccc4c(CCCCC(=O)O)c[nH]c34)no2)cc1Cl
12,3160 nM,O=C(O)CCc1c[nH]c2c(-c3noc(-c4ccc(Cl)cc4)n3)cccc12
13,0.251 nM,CC(C)Oc1ncc(-c2nc(-c3cccc4c(CCC(=O)O)c[nH]c34)no2)cc1C(F)(F)F
14,398 nM,CC1(C)Oc2ccc(-c3nc(-c4cccc5c(CCC(=O)O)c[nH]c45)no3)cc2O1
15,0.2 nM,CC(C)Oc1ccc(-c2nc(-c3ccc4[nH]c(CCC(=O)O)cc4c3)no2)cc1Cl
16,1260 nM,COc1ccc(-c2nc(-c3cccc4c(CCC(=O)O)c[nH]c34)no2)cc1OC

row,EC50,SMILES
1,200 nM,CCCn1cc(CCC(=O)O)c2cccc(-c3noc(-c4ccc(OC(C)C)c(Cl)c4)n3)c21
2,0.0126 nM,CC(C)Oc1ccc(-c2nc(-c3cccc4c(CCC(=O)O)c[nH]c34)no2)cc1Cl
3,25.1 nM,CC(C)Oc1ccc(-c2nc(-c3c(F)ccc4c(CCC(=O)O)cn(C)c34)no2)cc1Cl
4,2.51 nM,CC(C)Oc1ccc(-c2nc(-c3ccc4c(ccn4CCC(=O)O)c3)no2)cc1Cl
5,0.0316 nM,CC(C)Oc1ccc(-c2nc(-c3cccc4c(CCC(N)=O)c[nH]c34)no2)cc1Cl
6,0.0398 nM,CNC(=O)CCc1c[nH]c2c(-c3noc(-c4ccc(OC(C)C)c(Cl)c4)n3)cccc12
7,> 10000 nM,O=C(O)CCc1c[nH]c2c(-c3noc(C4CCOCC4)n3)cccc12
8,0.00631 nM,CC(C)Oc1ccc(-c2nc(-c3cccc4c(CCC(=O)O)cn(C)c34)no2)cc1Cl
9,> 3160 nM,O=C(O)CCc1c[nH]c2c(-c3noc(-c4ccc5c(c4)OCCO5)n3)cccc12
10,> 10000 nM,O=C(O)CCc1c[nH]c2c(-c3noc(C4CCCCC4)n3)cccc12
11,6.31 nM,COc1ccc(-c2noc(-c3ccc(OC(C)C)c(Cl)c3)n2)c2c1c(CCC(=O)O)cn2C
12,39.8 nM,CC(C)Oc1ccc(-c2nc(-c3cccc4c(CC(=O)O)c[nH]c34)no2)cc1Cl
13,0.316 nM,CCn1cc(CCC(=O)O)c2cccc(-c3noc(-c4ccc(OC(C)C)c(Cl)c4)n3)c21
14,398 nM,CC(C)Oc1ccc(-c2nc(-c3ccc4ccn(CCC(=O)O)c4c3)no2)cc1Cl
15,0.251 nM,CC(C)Oc1ccc(-c2nc(-c3ccc4c(CCC(=O)O)c[nH]c4c3)no2)cc1Cl

# Target: Sphingosine 1-phosphate receptor 3 (Homo sapiens, UniProt Q99500)
# Experiment: Agonist activity at human S1P3 receptor assessed as Ca2+ mobilization by GeneBLAzer assay
# Assay type: functional
# Conditions: not given
# Sphingosine 1-phosphate receptor 3, sequence (Q99500 whole entry): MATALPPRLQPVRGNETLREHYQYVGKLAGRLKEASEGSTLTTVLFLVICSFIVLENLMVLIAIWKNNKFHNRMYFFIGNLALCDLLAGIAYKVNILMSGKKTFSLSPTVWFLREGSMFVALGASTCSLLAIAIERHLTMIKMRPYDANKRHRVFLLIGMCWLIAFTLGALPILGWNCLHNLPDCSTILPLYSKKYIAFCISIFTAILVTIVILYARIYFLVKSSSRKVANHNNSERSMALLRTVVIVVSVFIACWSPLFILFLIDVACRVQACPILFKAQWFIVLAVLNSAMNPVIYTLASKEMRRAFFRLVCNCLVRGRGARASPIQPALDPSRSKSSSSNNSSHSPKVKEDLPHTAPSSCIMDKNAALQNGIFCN
row,EC50,SMILES
1,> 10000 nM,CC(C)Oc1ccc(-c2nc(-c3cccc4c(C(=O)O)c[nH]c34)no2)cc1Cl
2,> 10000 nM,CC(C)Oc1ccc(-c2nc(-c3cccc4c(CCC(=O)O)cn(C(C)C)c34)no2)cc1Cl
3,> 10000 nM,CC(C)Oc1ccc(-c2nc(-c3cccc4c(CCc5nnn[nH]5)c[nH]c34)no2)cc1Cl
4,> 10000 nM,CC(C)Oc1ncc(-c2nc(-c3cccc4c(CCC(=O)O)c[nH]c34)no2)cc1Cl
5,> 10000 nM,CCOc1ccc(-c2nc(-c3cccc4c(CCC(=O)O)c[nH]c34)no2)cc1OCC
6,> 10000 nM,CC(C)Oc1ccc(-c2nc(-c3ccc(F)c4c(CCC(=O)O)cn(C)c34)no2)cc1Cl
7,> 10000 nM,Cc1cc(-c2nc(-c3cccc4c(CCC(=O)O)c[nH]c34)no2)cnc1OC(C)C
8,> 10000 nM,CC(C)Oc1ccc(-c2nc(-c3cc(F)cc4c(CCC(=O)O)cn(C)c34)no2)cc1Cl
9,> 10000 nM,CC(C)Oc1ccc(-c2nc(-c3cccc4c(CCCC(=O)O)c[nH]c34)no2)cc1Cl
10,> 10000 nM,COc1cc(-c2nc(-c3cccc4c(CCC(=O)O)c[nH]c34)no2)cnc1OC(C)C
11,> 10000 nM,CC(C)Oc1ccc(-c2nc(-c3cccc4c(CCCCC(=O)O)c[nH]c34)no2)cc1Cl
12,> 10000 nM,O=C(O)CCc1c[nH]c2c(-c3noc(-c4ccc(Cl)cc4)n3)cccc12
13,> 10000 nM,CC(C)Oc1ncc(-c2nc(-c3cccc4c(CCC(=O)O)c[nH]c34)no2)cc1C(F)(F)F
14,> 10000 nM,CC1(C)Oc2ccc(-c3nc(-c4cccc5c(CCC(=O)O)c[nH]c45)no3)cc2O1
15,> 10000 nM,CC(C)Oc1ccc(-c2nc(-c3ccc4[nH]c(CCC(=O)O)cc4c3)no2)cc1Cl
16,> 10000 nM,COc1ccc(-c2nc(-c3cccc4c(CCC(=O)O)c[nH]c34)no2)cc1OC

row,EC50,SMILES
1,> 10000 nM,CCCn1cc(CCC(=O)O)c2cccc(-c3noc(-c4ccc(OC(C)C)c(Cl)c4)n3)c21
2,> 10000 nM,CC(C)Oc1ccc(-c2nc(-c3cccc4c(CCC(=O)O)c[nH]c34)no2)cc1Cl
3,> 10000 nM,CC(C)Oc1ccc(-c2nc(-c3c(F)ccc4c(CCC(=O)O)cn(C)c34)no2)cc1Cl
4,> 10000 nM,CC(C)Oc1ccc(-c2nc(-c3ccc4c(ccn4CCC(=O)O)c3)no2)cc1Cl
5,> 10000 nM,CC(C)Oc1ccc(-c2nc(-c3cccc4c(CCC(N)=O)c[nH]c34)no2)cc1Cl
6,> 10000 nM,CNC(=O)CCc1c[nH]c2c(-c3noc(-c4ccc(OC(C)C)c(Cl)c4)n3)cccc12
7,> 10000 nM,O=C(O)CCc1c[nH]c2c(-c3noc(C4CCOCC4)n3)cccc12
8,> 10000 nM,CC(C)Oc1ccc(-c2nc(-c3cccc4c(CCC(=O)O)cn(C)c34)no2)cc1Cl
9,> 10000 nM,O=C(O)CCc1c[nH]c2c(-c3noc(-c4ccc5c(c4)OCCO5)n3)cccc12
10,> 10000 nM,O=C(O)CCc1c[nH]c2c(-c3noc(C4CCCCC4)n3)cccc12
11,> 10000 nM,COc1ccc(-c2noc(-c3ccc(OC(C)C)c(Cl)c3)n2)c2c1c(CCC(=O)O)cn2C
12,> 10000 nM,CC(C)Oc1ccc(-c2nc(-c3cccc4c(CC(=O)O)c[nH]c34)no2)cc1Cl
13,> 10000 nM,CCn1cc(CCC(=O)O)c2cccc(-c3noc(-c4ccc(OC(C)C)c(Cl)c4)n3)c21
14,> 10000 nM,CC(C)Oc1ccc(-c2nc(-c3ccc4ccn(CCC(=O)O)c4c3)no2)cc1Cl
15,> 10000 nM,CC(C)Oc1ccc(-c2nc(-c3ccc4c(CCC(=O)O)c[nH]c4c3)no2)cc1Cl

# System: Mus musculus
# Experiment: Immunosuppressive activity in naive B6 mouse assessed as peripheral lymphocytes at 1 mg/kg, po at 4 hrs relative to control
# Assay type: functional
# Conditions: not given
row,SMILES,Activity
1,CC(C)Oc1ccc(-c2nc(-c3ccc(F)c4c(CCC(=O)O)cn(C)c34)no2)cc1Cl,21%

# System: Mus musculus
# Experiment: Immunosuppressive activity in naive B6 mouse assessed as peripheral lymphocytes at 1 mg/kg, po at 24 hrs relative to control
# Assay type: functional
# Conditions: not given
row,SMILES,Activity
1,CC(C)Oc1ccc(-c2nc(-c3ccc(F)c4c(CCC(=O)O)cn(C)c34)no2)cc1Cl,114%

# System: not listed separately
# Experiment: Ratio of drug level in brain to blood in mouse at 2 mg/kg, ip at 1 hr
# Assay type: ADME, organism-based
# Design: dose 2 mg/kg, route intraperitoneal
# Conditions: brain and blood
row,Kp at 1 h,SMILES
1,0.35,CC(C)Oc1ccc(-c2nc(-c3ccc(F)c4c(CCC(=O)O)cn(C)c34)no2)cc1Cl

# System: not listed separately
# Experiment: Ratio of drug level in brain to blood in mouse at 2 mg/kg, ip at 2 hrs
# Assay type: ADME, organism-based
# Design: dose 2 mg/kg, route intraperitoneal
# Conditions: brain and blood
row,Kp at 2 h,SMILES
1,0.48,CC(C)Oc1ccc(-c2nc(-c3ccc(F)c4c(CCC(=O)O)cn(C)c34)no2)cc1Cl

# System: not listed separately
# Experiment: Ratio of drug level in brain to blood in mouse at 2 mg/kg, ip at 4 hrs
# Assay type: ADME, organism-based
# Design: dose 2 mg/kg, route intraperitoneal
# Conditions: brain and blood
row,Kp at 4 h,SMILES
1,0.48,CC(C)Oc1ccc(-c2nc(-c3ccc(F)c4c(CCC(=O)O)cn(C)c34)no2)cc1Cl

# System: not listed separately
# Experiment: Clearance in C57BL/6 mouse blood at 1 mg/kg, iv and 2 mg/kg, po
# Assay type: ADME, organism-based
# Conditions: not given
row,clearance,SMILES
1,3.22 mL/min/kg,CC(C)Oc1ccc(-c2nc(-c3ccc(F)c4c(CCC(=O)O)cn(C)c34)no2)cc1Cl

# System: not listed separately
# Experiment: Volume of distribution at steady state in C57BL/6 mouse blood at 1 mg/kg, iv and 2 mg/kg, po
# Assay type: ADME, organism-based
# Conditions: read-out: Vdss
row,Vd,SMILES
1,0.84 L/kg,CC(C)Oc1ccc(-c2nc(-c3ccc(F)c4c(CCC(=O)O)cn(C)c34)no2)cc1Cl

# System: not listed separately
# Experiment: Cmax in C57BL/6 mouse blood at 1 mg/kg, iv and 2 mg/kg, po
# Assay type: ADME, organism-based
# Conditions: not given
row,Cmax,SMILES
1,1700 ng/mL,CC(C)Oc1ccc(-c2nc(-c3ccc(F)c4c(CCC(=O)O)cn(C)c34)no2)cc1Cl

# System: not listed separately
# Experiment: Terminal half life in C57BL/6 mouse blood at 1 mg/kg, iv and 2 mg/kg, po
# Assay type: ADME, organism-based
# Conditions: read-out: beta t1/2 (converted)
row,half-life,SMILES
1,3.83 h,CC(C)Oc1ccc(-c2nc(-c3ccc(F)c4c(CCC(=O)O)cn(C)c34)no2)cc1Cl

# System: not listed separately
# Experiment: Oral bioavailability in C57BL/6 mouse blood at 2 mg/kg
# Assay type: ADME, organism-based
# Conditions: not given
row,bioavailability,SMILES
1,100%,CC(C)Oc1ccc(-c2nc(-c3ccc(F)c4c(CCC(=O)O)cn(C)c34)no2)cc1Cl

# Organism: Mus musculus
# Experiment: Immunosuppressive activity in C57BL/6 mouse autoimmune encephalomyelitis model assessed as efficacy relative to fingolimod
# Assay type: functional, organism-based
# Conditions: not given
row,SMILES,Efficacy
1,CC(C)Oc1ccc(-c2nc(-c3ccc(F)c4c(CCC(=O)O)cn(C)c34)no2)cc1Cl,Active
